Consider two molecules from publication PMC10291552, “Computational Design, Synthesis, and Biological Evaluation of Diimidazole Analogues Endowed with Dual PCSK9/HMG-CoAR-Inhibiting Activity” (Journal of Medicinal Chemistry, 2023).

One assay has as its target T1, PCSK9/LDLR (Homo sapiens, UniProt Q8NBP7).
T1 construct: purchased CircuLex (CycLex Co., Nagano, Japan)
The assay is described as follows: In vitro PCSK9-LDLR binding assay (CircuLex/CycLex kit). To be noted: for IC50: mean ± SD, three independent experiments, Hill slope fixed at −1. The method, then: Diimidazole analogues (0.1–1 × 10^6 nM) were tested using the in vitro PCSK9-LDLR binding assay (CycLex Co., Nagano, Japan) following the manufacturer’s instructions and with the conditions already optimized.[15] Briefly, the plates were pre-coated with a recombinant LDLR-AB domain containing the binding site of PCSK9. Before starting the assay, the tested analogues and/or the vehicle in DMSO were sonicated at 37 °C, diluted in the reaction buffer, and added in microcentrifuge tubes. Afterward, the reaction mixtures were added in each well of the microplate, and the reaction was started by adding His-tagged PCSK9 solution (3 μL). The microplate was allowed to incubate for 2 h at room-temperature (RT) shaking at 300 rpm on an orbital microplate shaker. Subsequently, the wells were washed 4 times with the wash buffer. After the last wash, the biotinylated anti-His-tag monoclonal antibody (100 μL) was added and incubated at RT for 1 h shaking at 300 rpm. After incubation, the wells were washed 4 times with wash buffer. After the last wash, 100 μL of HRP-conjugated streptavidin were added, and the plate was incubated for 20 min at RT. After incubation, the wells were washed 4 times with wash buffer. Finally, the substrate reagent (tetra-methylbenzidine) was added, and the plate was incubated for 10 min at RT shaking at ca. 300 rpm. The reaction was stopped with 2.0 M sulfuric acid, and the absorbance at 450 nm was measured using a Synergy H1 fluorescent plate reader (Winooski, VT, USA).
All the data sets were checked for normal distribution by D’Agostino and Pearson tests. Since they are all normally disturbed with p values of […], we proceeded with statistical analyses of one-way ANOVA followed by Tukey’s post hoc test using Graphpad Prism 9 (San Diego, CA, USA). Values were reported as means ± s.d.; p values of <0.05 were considered to be significant. The IC50 values of samples inhibiting PCSK9-LDLR binding were evaluated by using the log(inhibitor) vs response model of GraphPad Prism 9 (San Diego, CA, USA). This model assumes that the dose–response curves has a standard slope, equal to a Hill slope (or slope factor) of −1.0. This is the slope expected when a ligand binds to a receptor following the law of mass action and is the slope expected of a dose–response curve when the second messenger created by receptor stimulation binds to its receptor by the law of mass action (https://graphpad.com/guides/prism/latest/curvefitting/reg_dr_inhibit.htm).

For assay [1], the target named is T2, HMG-CoAR (catalytic domain) (Homo sapiens, UniProt P04035).
T2 construct: and finally, HMG-CoAR (catalytic domain) (2 μL); purchased Sigma Aldrich
T2 sequence (P04035 426-888 limits assumed): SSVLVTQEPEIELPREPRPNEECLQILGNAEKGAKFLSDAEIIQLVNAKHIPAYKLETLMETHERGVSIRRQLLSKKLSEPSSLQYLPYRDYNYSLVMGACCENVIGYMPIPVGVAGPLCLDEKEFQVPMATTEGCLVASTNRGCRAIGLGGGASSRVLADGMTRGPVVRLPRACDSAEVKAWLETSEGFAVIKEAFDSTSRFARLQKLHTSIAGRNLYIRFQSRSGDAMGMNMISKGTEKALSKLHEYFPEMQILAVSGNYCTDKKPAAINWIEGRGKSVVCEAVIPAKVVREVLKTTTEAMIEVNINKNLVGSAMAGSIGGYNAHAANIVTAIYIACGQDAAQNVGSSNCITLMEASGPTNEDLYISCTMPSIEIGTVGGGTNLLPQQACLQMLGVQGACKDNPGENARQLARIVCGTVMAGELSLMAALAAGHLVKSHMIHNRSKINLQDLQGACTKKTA
As to the kind of experiment: HMG-CoAR activity assay (Sigma kit, NADPH oxidation at 340 nm). Type of assay: biochemical. The conditions noted are these: 10–500 μM tested, 37 °C. On the procedure:
The experiments were carried out following the manufacturer’s instructions and optimized protocol.[43] The assay buffer, NADPH, substrate solution, and HMG-CoAR were provided in the HMG-CoAR Assay Kit (Sigma Aldrich SRL, Milan, Italy). The experiments were carried out following the manufacturer’s instructions at 37 °C. In particular, each reaction (200 μL) was prepared adding the reagents in the following order: 1× assay buffer, a 10–500 μM dose of sonicated Dim analogues or vehicle (C), NADPH (4 μL), the substrate solution (12 μL), and finally, HMG-CoAR (catalytic domain) (2 μL). Subsequently, the samples were mixed, and the absorbance at 340 nm was read by a microplate reader (Synergy H1, Winooski, VT, USA) at times of 0 and 10 min. The HMGCoAR-dependent oxidation of NADPH and the inhibition properties of the peptides were measured by absorbance reduction, which is directly proportional to enzyme activity.

In a further assay the test system is HepG2 cells. The assay is described as follows: Fluorescent LDL uptake by HepG2 cells in the presence of PCSK9. To be noted: co-incubated with PCSK9 4 μg/mL, relative to untreated control cells. Type of assay: cell-based, human. On the procedure:
HepG2 cells (3 × 10^4/well) were seeded in 96-well plates and kept in complete growth medium for 2 days before treatment. On the third day, the cells were washed with PBS and then starved overnight (O/N) in DMEM without FBS and antibiotics. After starvation, they were treated with 4.0 μg/mL PCSK9, 4.0 μg/mL PCSK9 + diimidazole analogues, and vehicle (H2O) for 2 h with at 37 °C under a 5% CO2 atmosphere. At the end of the treatment, the culture medium was replaced with 50 μL/well LDL-DyLight 550 working solution (Cayman Chemical Company, Ann Arbor, MI, USA) prepared in DMEM without FBS and antibiotics. The cells were additionally incubated for 2 h at 37 °C, and then the culture medium was aspirated and replaced with PBS (100 μL/well). The degree of LDL uptake was measured using a Synergy H1 fluorescent plate reader (Winooski, VT, USA) (excitation and emission wavelengths of 540 and 570 nm, respectively). Fluorescent LDL uptake was finally assessed following optimized protocol.[14]

Entries after “also recorded” stand apart in the source; their conditions may differ.

T1 sequence (Q8NBP7 153-692): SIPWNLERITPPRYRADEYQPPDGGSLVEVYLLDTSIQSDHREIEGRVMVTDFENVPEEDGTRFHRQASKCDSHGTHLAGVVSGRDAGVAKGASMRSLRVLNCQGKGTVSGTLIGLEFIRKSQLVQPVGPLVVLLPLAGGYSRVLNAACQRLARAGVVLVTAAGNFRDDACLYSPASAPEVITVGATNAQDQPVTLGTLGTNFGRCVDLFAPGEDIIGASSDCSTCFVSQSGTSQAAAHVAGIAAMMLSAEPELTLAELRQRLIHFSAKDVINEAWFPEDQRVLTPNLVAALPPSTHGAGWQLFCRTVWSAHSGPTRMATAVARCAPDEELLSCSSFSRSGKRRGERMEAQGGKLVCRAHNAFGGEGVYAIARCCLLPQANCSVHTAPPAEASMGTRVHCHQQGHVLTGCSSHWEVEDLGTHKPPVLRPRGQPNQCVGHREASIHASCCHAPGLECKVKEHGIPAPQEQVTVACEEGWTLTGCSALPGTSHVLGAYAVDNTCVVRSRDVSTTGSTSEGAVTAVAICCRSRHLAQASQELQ
T1 sequence (Q8NBP7 31-152 limits assumed): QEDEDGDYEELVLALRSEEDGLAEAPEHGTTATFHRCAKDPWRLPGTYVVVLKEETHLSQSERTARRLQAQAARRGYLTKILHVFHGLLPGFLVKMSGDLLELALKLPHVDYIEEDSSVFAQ

`C#Cc1ncc(-c2ncc(-c3ccc4ccccc4c3)n2CCCC(C)(C)C)n1CCCCCNC` [Dim3, 5-(1-(4,4-Dimethylpentyl)-2′-ethynyl-5-(naphthalen-2-yl)-1H,3′H-[2,4′-biimidazol]-3′-yl)-N-methylpentan-1-amine]: on PCSK9/LDLR, the IC50 (as a rule, the concentration needed to halve the response being measured) was found to be 9 ± 10 nM. Further, the “HMG-CoAR activity IC50” value in assay [1] is listed as “no in vitro inhibitory activity; also recorded: not active”. Further, the LDL uptake in the assay with HepG2 cells (1 nM) is 94.12 ± 10.95%; with HepG2 cells (10 nM) it was 103.47 ± 7.34%.

For the molecule `CNCCCCCn1c(-c2ncc(-c3ccc4ccccc4c3)n2CCCC(C)(C)C)cnc1I` [Dim16, 5-(1-(4,4-Dimethylpentyl)-2′-iodo-5-(naphthalen-2-yl)-1H,3′H-[2,4′-biimidazol]-3′-yl)-N-methylpentan-1-amine], the results for the IC50 (on PCSK9/LDLR; in assay [1]) were 0.8 ± 1 nM and 147000 ± 75100 nM, respectively. Also, the “PCSK9/LDLR PPI, fold more active than P5” value at PCSK9/LDLR (ratio versus P5) stood at 2000. In addition, the LDL uptake in the assay on HepG2 cells (1 nM) was 81.87 ± 7.45%; with HepG2 cells (10 nM), 136.47 ± 8.81%.
